Legend:
CD8+ T cells = experiment: In vitro stimulation of CD8+ T cells with MENK peptide; type: cell-based; conditions: for coinhibitory receptors / checkpoints expression on T cells: MENK stimulation
Source text: FIG. 55A. […] FIG. 55B. […] FIG. 55C. […] FIG. 55D.
Applicants determined the effect of PENK-OGFR signaling on tumor growth and anti-tumor immunity.

elastase = conditions: cited from earlier work
leucine aminopeptidase = conditions: cited from earlier work
[1] = intraperitoneal injection of 300 mg/kg to mice; cited from earlier work
pepsin = pepsin (Homo sapiens, UniProt P0DJD8); conditions: cited from earlier work
pepsin, sequence (P0DJD8 63-388): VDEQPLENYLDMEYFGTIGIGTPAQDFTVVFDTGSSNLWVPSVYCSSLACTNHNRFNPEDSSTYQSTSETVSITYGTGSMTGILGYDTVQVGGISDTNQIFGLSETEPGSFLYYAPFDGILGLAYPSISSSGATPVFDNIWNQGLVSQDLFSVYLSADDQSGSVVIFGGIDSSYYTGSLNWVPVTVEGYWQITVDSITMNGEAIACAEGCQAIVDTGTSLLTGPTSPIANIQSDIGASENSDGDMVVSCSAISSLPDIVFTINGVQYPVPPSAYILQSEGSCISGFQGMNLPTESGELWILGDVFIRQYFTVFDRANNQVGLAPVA

aminopeptidase A = aminopeptidase A (Homo sapiens, UniProt Q07075); conditions: cited from earlier work
aminopeptidase A, sequence (Q07075 whole entry, species assumed): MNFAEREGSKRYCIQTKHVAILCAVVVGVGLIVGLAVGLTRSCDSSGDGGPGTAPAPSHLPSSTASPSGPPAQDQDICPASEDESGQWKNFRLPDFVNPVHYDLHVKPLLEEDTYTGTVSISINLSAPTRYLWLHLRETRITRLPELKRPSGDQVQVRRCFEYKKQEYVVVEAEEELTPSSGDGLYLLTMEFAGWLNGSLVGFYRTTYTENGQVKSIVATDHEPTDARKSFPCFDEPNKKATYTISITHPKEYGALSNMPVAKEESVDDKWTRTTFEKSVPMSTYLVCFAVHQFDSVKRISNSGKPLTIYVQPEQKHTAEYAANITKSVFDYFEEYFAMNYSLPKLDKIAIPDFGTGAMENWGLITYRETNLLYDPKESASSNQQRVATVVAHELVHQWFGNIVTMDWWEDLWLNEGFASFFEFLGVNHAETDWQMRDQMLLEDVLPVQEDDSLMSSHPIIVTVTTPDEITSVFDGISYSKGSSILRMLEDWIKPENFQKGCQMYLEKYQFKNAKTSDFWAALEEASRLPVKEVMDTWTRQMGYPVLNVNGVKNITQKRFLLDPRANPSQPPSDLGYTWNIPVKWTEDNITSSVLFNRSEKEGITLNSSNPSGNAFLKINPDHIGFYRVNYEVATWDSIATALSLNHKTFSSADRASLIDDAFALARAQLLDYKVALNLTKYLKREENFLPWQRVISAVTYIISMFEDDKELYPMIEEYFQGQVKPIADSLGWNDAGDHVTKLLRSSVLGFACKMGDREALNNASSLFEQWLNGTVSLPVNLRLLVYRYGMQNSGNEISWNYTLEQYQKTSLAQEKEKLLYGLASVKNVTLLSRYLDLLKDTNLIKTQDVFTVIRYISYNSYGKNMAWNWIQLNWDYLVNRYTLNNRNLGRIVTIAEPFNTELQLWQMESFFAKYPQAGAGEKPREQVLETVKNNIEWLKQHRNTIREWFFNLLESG

fungi = conditions: at 100 pg/ml; cited from earlier work
chymotrypsin = chymotrypsin (Bos taurus, UniProt P00766); conditions: cited from earlier work
trypsin = trypsin (Homo sapiens, UniProt P07477); conditions: cited from earlier work
papain = molecular target: T1, papain (Carica papaya, UniProt P00784); conditions: cited from earlier work
T1 sequence (P00784 134-345): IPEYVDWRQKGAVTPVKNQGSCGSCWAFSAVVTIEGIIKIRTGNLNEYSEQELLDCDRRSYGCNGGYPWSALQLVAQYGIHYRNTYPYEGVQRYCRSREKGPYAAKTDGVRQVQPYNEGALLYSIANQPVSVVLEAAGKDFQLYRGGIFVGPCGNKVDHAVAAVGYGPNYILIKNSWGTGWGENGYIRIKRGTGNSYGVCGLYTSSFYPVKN

bacteria = tested on: bacteria; design: dose or concentration left out as unconfirmed; conditions: cited from earlier work
aminopeptidase B = aminopeptidase B (Homo sapiens, UniProt Q9H4A4); conditions: cited from earlier work
aminopeptidase B, sequence (Q9H4A4 whole entry, species assumed): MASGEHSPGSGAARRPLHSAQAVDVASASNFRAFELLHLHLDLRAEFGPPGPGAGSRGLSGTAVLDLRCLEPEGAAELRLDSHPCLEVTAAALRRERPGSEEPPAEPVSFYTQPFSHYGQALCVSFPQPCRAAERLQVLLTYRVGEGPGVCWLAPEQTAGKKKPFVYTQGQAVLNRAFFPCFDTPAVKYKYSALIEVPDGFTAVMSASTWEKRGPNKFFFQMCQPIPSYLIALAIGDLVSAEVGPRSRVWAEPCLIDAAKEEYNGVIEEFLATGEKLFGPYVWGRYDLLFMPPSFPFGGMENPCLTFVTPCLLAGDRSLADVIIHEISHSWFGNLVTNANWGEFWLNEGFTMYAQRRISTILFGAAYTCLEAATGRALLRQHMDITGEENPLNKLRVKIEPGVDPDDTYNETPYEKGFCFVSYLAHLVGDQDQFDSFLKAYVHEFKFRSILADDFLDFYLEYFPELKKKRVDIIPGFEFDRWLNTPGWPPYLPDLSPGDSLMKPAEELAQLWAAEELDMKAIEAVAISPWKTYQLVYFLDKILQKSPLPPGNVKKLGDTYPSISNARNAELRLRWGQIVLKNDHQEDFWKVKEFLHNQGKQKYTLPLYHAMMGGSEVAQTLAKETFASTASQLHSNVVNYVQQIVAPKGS

thermolysin = molecular target: T2, thermolysin (Bacillus thermoproteolyticus, UniProt P00800); conditions: cited from earlier work
T2 sequence (P00800 233-548): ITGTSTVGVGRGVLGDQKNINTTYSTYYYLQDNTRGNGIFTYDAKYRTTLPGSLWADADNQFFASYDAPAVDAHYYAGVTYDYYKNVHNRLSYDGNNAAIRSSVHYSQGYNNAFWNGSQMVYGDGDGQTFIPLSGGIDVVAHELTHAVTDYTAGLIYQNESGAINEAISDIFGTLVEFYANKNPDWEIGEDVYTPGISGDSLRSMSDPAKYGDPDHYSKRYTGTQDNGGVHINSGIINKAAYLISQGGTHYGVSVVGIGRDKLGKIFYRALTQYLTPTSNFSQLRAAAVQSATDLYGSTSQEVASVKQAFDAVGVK

[2] = MENK vs control, in vitro, listed as Menk

[Met]enkephalin (YGGFM) [MENK, enkephalin peptide produced by proteolytic cleavage of PENK]
coinhibitory receptors / checkpoints expression on T cells (CD8+ T cells): increases
coinhibitory receptors / checkpoints expression on T cells (CD8+ T cells; listed as Menk): increased expression of several checkpoints
CD160 (CD8+ T cells; MENK vs control, in vitro): increased
IL-2 (CD8+ T cells; MENK vs control, in vitro): decreased
PD1 (CD8+ T cells; MENK vs control, in vitro): increased
PD1+ TIM3+CD8+ T cells (CD8+ T cells; MENK vs control, in vitro): increased
TIM3 (CD8+ T cells; MENK vs control, in vitro): increased
proliferation (CD8+ T cells; MENK vs control, in vitro): decreased
IL-2 (CD8+ T cells; [2]): dampened
proliferation (CD8+ T cells; [2]): some reduction

CC(C)C[C@H](NC(=O)[C@@H](O)[C@H](N)Cc1ccccc1)C(=O)O [Bestatin, ubenimex (bestatin)]
inhibition of elastase (elastase): does not show any inhibition
inhibition of leucine aminopeptidase (leucine aminopeptidase): specific inhibitor
toxicity (death) [1]: no death
inhibition of pepsin (pepsin): does not show any inhibition
inhibition of aminopeptidase A (aminopeptidase A): does not show any inhibition
antifungal activity (fungi): no antifungal
inhibition of chymotrypsin (chymotrypsin): does not show any inhibition
inhibition of trypsin (trypsin): does not show any inhibition
inhibition of papain (papain): does not show any inhibition
antibacterial activity (bacteria): no antibacterial
inhibition of aminopeptidase B (aminopeptidase B): specific inhibitor
inhibition of thermolysin (thermolysin): does not show any inhibition
